According to patent US20230210831A1, “CHRONIC KIDNEY DISEASE TREATMENT OR PREVENTION METHOD” (Japan Tobacco Inc., priority 2019, published 2023):
Values joined by “and” are separate entries in the source; they are usually repeats but may differ in a detail not shown here. Equal values may be shown once.

Assays:
Format in all cases: cell-based
[1] = tested on: Salmonella typhimurium TA1537; experiment: Ames test (reverse mutation test), TA1537; details: for Number of revertant colonies TA1537: S9 Mix -
Method: (§1) The solvent used herein was dimethyl sulfoxide (DMSO, 100 µL/plate).
(§2) The mixtures were preincubated at 37° C. for 20 minutes while shaking. […] Two plates per treatment were used.

[2] = tested on: Salmonella typhimurium TA100; experiment: Ames test (reverse mutation test), TA100; details: for Number of revertant colonies TA100: S9 Mix -
Method: as §1, §2

[3] = tested on: Salmonella typhimurium TA98; experiment: Ames test (reverse mutation test), TA98; details: for potential to induce reverse mutations: TA98 with S9 mix; for Number of revertant colonies TA98: S9 Mix -
Method: as §1, §2

[4] = tested on: Salmonella typhimurium TA1535; experiment: Ames test (reverse mutation test), TA1535
Method: as §1, §2

Escherichia coli WP2uvrA = experiment: Ames test (reverse mutation test), WP2uvrA; details: for Number of revertant colonies: WP2uvrA; for Number of revertant colonies WP2uvrA: S9 Mix -
Method: as §1, §2

## COc1ccc2nc3cc(Cl)ccc3c(NCCCNCCCl)c2c1 [ICR-191]
[1]; dose 1.0 µg/plate, positive control
  Number of revertant colonies TA1537: 1448 and 1435 and 1413 and 1096 and 1397
[1]; TA1537, -S9 mix, 1.0 µg/plate (positive control)
  Number of revertant colonies: 1170 and 1131

## CC(C)(C)Oc1cccc(-c2cc(N)nn2-c2ccccc2)c1 [Metabolite C]
[2]; TA100, +S9 mix, 2.34 µg/plate
  Number of revertant colonies: 526
[2]; TA100, +S9 mix, 4.69 µg/plate
  Number of revertant colonies: 778
[2]; TA100, +S9 mix, 9.38 µg/plate
  Number of revertant colonies: 1210
[2]; TA100, +S9 mix, 18.8 µg/plate
  Number of revertant colonies: 1745
[2]; TA100, +S9 mix, 37.5 µg/plate
  Number of revertant colonies: 2049
[2]; TA100, +S9 mix, 75 µg/plate
  Number of revertant colonies: 2147
[2]; TA100, +S9 mix, 150 µg/plate
  Number of revertant colonies: 2043
[2]; TA100, +S9 mix, 300 µg/plate
  Number of revertant colonies: 1412
[2]; TA100, -S9 mix, 2.3 µg/plate
  Number of revertant colonies: 87
[2]; TA100, -S9 mix, 6.9 µg/plate
  Number of revertant colonies: 99
[2]; TA100, -S9 mix, 21 µg/plate
  Number of revertant colonies: 48
[2]; TA100, -S9 mix, 62 µg/plate
  Number of revertant colonies: 41
[2]; TA100, -S9 mix, 185 µg/plate
  Number of revertant colonies: 45
[2]; TA100, -S9 mix, 556 µg/plate
  Number of revertant colonies: 33
[2]; TA100, -S9 mix, 1667 µg/plate
  Number of revertant colonies: 25
[2]; TA100, -S9 mix, 5000 µg/plate
  Number of revertant colonies: 35
[2]; TA100 with S9 mix
  potential to induce reverse mutations: showed potential to induce reverse mutations
[3]; TA98, +S9 mix, 2.34 µg/plate
  Number of revertant colonies: 38
[3]; TA98, +S9 mix, 4.69 µg/plate
  Number of revertant colonies: 36
[3]; TA98, +S9 mix, 9.38 µg/plate
  Number of revertant colonies: 73
[3]; TA98, +S9 mix, 18.8 µg/plate
  Number of revertant colonies: 107
[3]; TA98, +S9 mix, 37.5 µg/plate
  Number of revertant colonies: 133
[3]; TA98, +S9 mix, 75 µg/plate
  Number of revertant colonies: 153
[3]; TA98, +S9 mix, 150 µg/plate
  Number of revertant colonies: 133
[3]; TA98, +S9 mix, 300 µg/plate
  Number of revertant colonies: 138
[3]; TA98, -S9 mix, 2.3 µg/plate
  Number of revertant colonies: 14
[3]; TA98, -S9 mix, 6.9 µg/plate
  Number of revertant colonies: 15
[3]; TA98, -S9 mix, 21 µg/plate
  Number of revertant colonies: 17
[3]; TA98, -S9 mix, 62 µg/plate
  Number of revertant colonies: 8
[3]; TA98, -S9 mix, 185 µg/plate
  Number of revertant colonies: 8
[3]; TA98, -S9 mix, 556 µg/plate
  Number of revertant colonies: 8
[3]; TA98, -S9 mix, 1667 µg/plate
  Number of revertant colonies: 8
[3]; TA98, -S9 mix, 5000 µg/plate
  Number of revertant colonies: 0
[3]
  potential to induce reverse mutations: showed potential to induce reverse mutations
[1]; TA1537, +S9 mix, 2.3 µg/plate
  Number of revertant colonies: 6
[1]; TA1537, +S9 mix, 6.9 µg/plate
  Number of revertant colonies: 7
[1]; TA1537, +S9 mix, 21 µg/plate
  Number of revertant colonies: 7
[1]; TA1537, +S9 mix, 62 µg/plate
  Number of revertant colonies: 9
[1]; TA1537, +S9 mix, 185 µg/plate
  Number of revertant colonies: 9
[1]; TA1537, +S9 mix, 556 µg/plate
  Number of revertant colonies: 4
[1]; TA1537, +S9 mix, 1667 µg/plate
  Number of revertant colonies: 4
[1]; TA1537, +S9 mix, 5000 µg/plate
  Number of revertant colonies: 5
[1]; TA1537, -S9 mix, 2.3 µg/plate
  Number of revertant colonies: 3
[1]; TA1537, -S9 mix, 6.9 µg/plate
  Number of revertant colonies: 1
[1]; TA1537, -S9 mix, 21 µg/plate
  Number of revertant colonies: 3
[1]; TA1537, -S9 mix, 62 µg/plate
  Number of revertant colonies: 3
[1]; TA1537, -S9 mix, 185 µg/plate
  Number of revertant colonies: 2
[1]; TA1537, -S9 mix, 556 µg/plate
  Number of revertant colonies: 0
[1]; TA1537, -S9 mix, 1667 µg/plate
  Number of revertant colonies: 0
[1]; TA1537, -S9 mix, 5000 µg/plate
  Number of revertant colonies: 0
[4]; TA1535, +S9 mix, 2.3 µg/plate
  Number of revertant colonies: 8
[4]; TA1535, +S9 mix, 6.9 µg/plate
  Number of revertant colonies: 8
[4]; TA1535, +S9 mix, 21 µg/plate
  Number of revertant colonies: 5
[4]; TA1535, +S9 mix, 62 µg/plate
  Number of revertant colonies: 4
[4]; TA1535, +S9 mix, 185 µg/plate
  Number of revertant colonies: 5
[4]; TA1535, +S9 mix, 556 µg/plate
  Number of revertant colonies: 4
[4]; TA1535, +S9 mix, 1667 µg/plate
  Number of revertant colonies: 5
[4]; TA1535, +S9 mix, 5000 µg/plate
  Number of revertant colonies: 4
[4]; TA1535, -S9 mix, 21 µg/plate
  Number of revertant colonies: 6
[4]; TA1535, -S9 mix, 556 µg/plate
  Number of revertant colonies: 0
Escherichia coli WP2uvrA; +S9 mix, 2.3 µg/plate
  Number of revertant colonies: 28
Escherichia coli WP2uvrA; +S9 mix, 6.9 µg/plate
  Number of revertant colonies: 23
Escherichia coli WP2uvrA; +S9 mix, 21 µg/plate
  Number of revertant colonies: 21
Escherichia coli WP2uvrA; +S9 mix, 62 µg/plate
  Number of revertant colonies: 26
Escherichia coli WP2uvrA; +S9 mix, 185 µg/plate
  Number of revertant colonies: 17
Escherichia coli WP2uvrA; +S9 mix, 556 µg/plate
  Number of revertant colonies: 8
Escherichia coli WP2uvrA; +S9 mix, 1667 µg/plate
  Number of revertant colonies: 12
Escherichia coli WP2uvrA; +S9 mix, 5000 µg/plate
  Number of revertant colonies: 16
Escherichia coli WP2uvrA; -S9 mix, 2.3 µg/plate
  Number of revertant colonies: 15
Escherichia coli WP2uvrA; -S9 mix, 6.9 µg/plate
  Number of revertant colonies: 16
Escherichia coli WP2uvrA; -S9 mix, 21 µg/plate
  Number of revertant colonies: 17
Escherichia coli WP2uvrA; -S9 mix, 62 µg/plate
  Number of revertant colonies: 13
Escherichia coli WP2uvrA; -S9 mix, 185 µg/plate
  Number of revertant colonies: 13
Escherichia coli WP2uvrA; -S9 mix, 556 µg/plate
  Number of revertant colonies: 13
Escherichia coli WP2uvrA; -S9 mix, 1667 µg/plate
  Number of revertant colonies: 10
Escherichia coli WP2uvrA; -S9 mix, 5000 µg/plate
  Number of revertant colonies: 11

## CC(C)(OCc1cc(F)cc(-c2cc(N)nn2-c2ccc(F)cc2)c1)C(F)(F)F [Metabolite D]
[2]; dose 2.3 µg/plate
  Number of revertant colonies TA100: 99
[2]; dose 6.9 µg/plate
  Number of revertant colonies TA100: 98
[2]; dose 21 µg/plate
  Number of revertant colonies TA100: 71
[2]; dose 62 µg/plate
  Number of revertant colonies TA100: 96
[2]; dose 185 µg/plate
  Number of revertant colonies TA100: 85
[2]; dose 556 µg/plate
  Number of revertant colonies TA100: 86
[2]; dose 1667 µg/plate
  Number of revertant colonies TA100: 69
[2]; dose 5000 µg/plate
  Number of revertant colonies TA100: 82
[2]; TA100, +S9 mix, 2.3 µg/plate
  Number of revertant colonies: 139
[2]; TA100, +S9 mix, 6.9 µg/plate
  Number of revertant colonies: 203
[2]; TA100, +S9 mix, 21 µg/plate
  Number of revertant colonies: 237
[2]; TA100, +S9 mix, 62 µg/plate
  Number of revertant colonies: 185
[2]; TA100, +S9 mix, 185 µg/plate
  Number of revertant colonies: 151
[2]; TA100, +S9 mix, 556 µg/plate
  Number of revertant colonies: 119
[2]; TA100, +S9 mix, 1667 µg/plate
  Number of revertant colonies: 100
[2]; TA100, +S9 mix, 5000 µg/plate
  Number of revertant colonies: 98
[3]; dose 2.3 µg/plate
  Number of revertant colonies TA98: 27
[3]; dose 6.9 µg/plate
  Number of revertant colonies TA98: 22
[3]; dose 21 µg/plate
  Number of revertant colonies TA98: 23
[3]; dose 62 µg/plate
  Number of revertant colonies TA98: 25
[3]; dose 185 µg/plate
  Number of revertant colonies TA98: 32
[3]; dose 556 µg/plate
  Number of revertant colonies TA98: 21
[3]; dose 1667 µg/plate
  Number of revertant colonies TA98: 23
[3]; dose 5000 µg/plate
  Number of revertant colonies TA98: 21
[3]; TA98, +S9 mix, 2.3 µg/plate
  Number of revertant colonies: 39
[3]; TA98, +S9 mix, 6.9 µg/plate
  Number of revertant colonies: 42
[3]; TA98, +S9 mix, 21 µg/plate
  Number of revertant colonies: 52
[3]; TA98, +S9 mix, 62 µg/plate
  Number of revertant colonies: 47
[3]; TA98, +S9 mix, 185 µg/plate
  Number of revertant colonies: 49
[3]; TA98, +S9 mix, 556 µg/plate
  Number of revertant colonies: 51
[3]; TA98, +S9 mix, 1667 µg/plate
  Number of revertant colonies: 57
[3]; TA98, +S9 mix, 5000 µg/plate
  Number of revertant colonies: 88
[3]
  potential to induce reverse mutations: showed potential to induce reverse mutations
[1]; dose 2.3 µg/plate
  Number of revertant colonies TA1537: 11
[1]; dose 6.9 µg/plate
  Number of revertant colonies TA1537: 13
[1]; dose 21 µg/plate
  Number of revertant colonies TA1537: 11
[1]; dose 62 µg/plate
  Number of revertant colonies TA1537: 7
[1]; dose 185 µg/plate
  Number of revertant colonies TA1537: 6
[1]; dose 556 µg/plate
  Number of revertant colonies TA1537: 7
[1]; dose 1667 µg/plate
  Number of revertant colonies TA1537: 6
[1]; dose 5000 µg/plate
  Number of revertant colonies TA1537: 8
[1]; TA1537, +S9 mix, 2.3 µg/plate
  Number of revertant colonies: 14
[1]; TA1537, +S9 mix, 6.9 µg/plate
  Number of revertant colonies: 20
[1]; TA1537, +S9 mix, 21 µg/plate
  Number of revertant colonies: 13
[1]; TA1537, +S9 mix, 62 µg/plate
  Number of revertant colonies: 18
[1]; TA1537, +S9 mix, 185 µg/plate
  Number of revertant colonies: 15
[1]; TA1537, +S9 mix, 556 µg/plate
  Number of revertant colonies: 15
[1]; TA1537, +S9 mix, 1667 µg/plate
  Number of revertant colonies: 19
[1]; TA1537, +S9 mix, 5000 µg/plate
  Number of revertant colonies: 24
[1]; TA1537 with S9 mix
  potential to induce reverse mutations: showed potential to induce reverse mutations
[4]; S9 Mix -, dose 1667 µg/plate
  Number of revertant colonies TA1535: 6
[4]; TA1535, +S9 mix, 1667 µg/plate
  Number of revertant colonies: 7
Escherichia coli WP2uvrA; dose 2.3 µg/plate
  Number of revertant colonies WP2uvrA: 25
Escherichia coli WP2uvrA; dose 6.9 µg/plate
  Number of revertant colonies WP2uvrA: 27
Escherichia coli WP2uvrA; dose 21 µg/plate
  Number of revertant colonies WP2uvrA: 22
Escherichia coli WP2uvrA; dose 62 µg/plate
  Number of revertant colonies WP2uvrA: 21
Escherichia coli WP2uvrA; dose 185 µg/plate
  Number of revertant colonies WP2uvrA: 22
Escherichia coli WP2uvrA; dose 556 µg/plate
  Number of revertant colonies WP2uvrA: 16
Escherichia coli WP2uvrA; dose 1667 µg/plate
  Number of revertant colonies WP2uvrA: 18
Escherichia coli WP2uvrA; dose 5000 µg/plate
  Number of revertant colonies WP2uvrA: 20
Escherichia coli WP2uvrA; +S9 mix, 2.3 µg/plate
  Number of revertant colonies: 31
Escherichia coli WP2uvrA; +S9 mix, 6.9 µg/plate
  Number of revertant colonies: 18
Escherichia coli WP2uvrA; +S9 mix, 21 µg/plate
  Number of revertant colonies: 24
Escherichia coli WP2uvrA; +S9 mix, 62 µg/plate
  Number of revertant colonies: 18
Escherichia coli WP2uvrA; +S9 mix, 185 µg/plate
  Number of revertant colonies: 23
Escherichia coli WP2uvrA; +S9 mix, 556 µg/plate
  Number of revertant colonies: 32
Escherichia coli WP2uvrA; +S9 mix, 1667 µg/plate
  Number of revertant colonies: 28
Escherichia coli WP2uvrA; +S9 mix, 5000 µg/plate
  Number of revertant colonies: 28

## [N-]=[N+]=[N-].[Na+] [SA]
[4]; TA1535, -S9 mix, 0.5 µg/plate (positive control)
  Number of revertant colonies: 217 and 222
